A word on the pIC50: it is the negative decadic logarithm of the IC50, by convention in mol/L. As usually defined, the IC50 is the concentration that gives 50% inhibition. Read a low IC50 as higher potency.

Here are results for 30 compounds from patent US20250171462A1 (NICO Therapeutics, Inc., priority 2022, published 2025).

This experiment addresses T1, full-length SARM1 (FL-SARM1) (Homo sapiens, UniProt Q6SZW1).
T1 sequence (Q6SZW1 28-724): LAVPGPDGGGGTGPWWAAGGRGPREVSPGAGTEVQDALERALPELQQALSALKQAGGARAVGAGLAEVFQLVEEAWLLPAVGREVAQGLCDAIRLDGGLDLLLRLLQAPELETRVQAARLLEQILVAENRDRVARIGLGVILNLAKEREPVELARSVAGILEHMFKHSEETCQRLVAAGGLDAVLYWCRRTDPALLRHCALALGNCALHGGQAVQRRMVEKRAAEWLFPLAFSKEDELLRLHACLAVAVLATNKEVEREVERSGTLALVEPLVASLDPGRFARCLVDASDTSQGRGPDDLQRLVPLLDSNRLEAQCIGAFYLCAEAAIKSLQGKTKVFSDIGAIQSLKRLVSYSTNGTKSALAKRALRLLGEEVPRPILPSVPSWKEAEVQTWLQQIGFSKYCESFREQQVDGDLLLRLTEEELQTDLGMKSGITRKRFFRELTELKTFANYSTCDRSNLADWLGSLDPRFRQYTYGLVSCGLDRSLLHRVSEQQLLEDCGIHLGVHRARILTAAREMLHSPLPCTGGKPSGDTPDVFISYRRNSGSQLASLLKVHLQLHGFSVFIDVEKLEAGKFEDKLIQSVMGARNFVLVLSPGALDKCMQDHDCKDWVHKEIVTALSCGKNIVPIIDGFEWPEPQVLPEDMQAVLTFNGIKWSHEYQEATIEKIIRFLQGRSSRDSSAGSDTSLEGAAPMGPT
The experiment in a line: FL-SARM1 cellular lysate assay (NAD/NADH-Glo detection of remaining NAD+, NMN-activated). The following applies: for IC50: Activity (μM) (IC50).

Setting [1] is: Activity (IC50 class), 11 point curve.
Where [2] appears, read: read-out: Activity (IC50 class), 11 point curve.

pIC50: −log10 of the molar value. Where two headings read alike, the source gives them in different places.

The compound `Cc1cc(F)c(NC(=O)N2C3CC2CN(CC(F)(F)F)C3)cc1-c1ccccn1` [Example 3, N-(2-Fluoro-4-methyl-5-(pyridin-2-yl)phenyl)-3-(2,2,2-trifluoroethyl)-3,6-diazabicyclo[3.1.1]heptane-6-carboxamide] showed a pIC50 under setting [1] of 5.00 to 6.00. Also, the half-maximal inhibitory concentration (IC50) (11 point curve) came out at 1.2 µM.

Under setting [1], `Cc1cc(F)c(NC(=O)N2C3CCCC2C3)cc1-c1nccnn1` [Example 246, N-[2-fluoro-4-methyl-5-(1,2,4-triazin-3-yl)phenyl]-6-azabicyclo[3.1.1]heptane-6-carboxamide] showed a pIC50 of 5.00 to 6.00. Moreover, half-maximal inhibition (11 point curve) (IC50) was put at 2 µM.

For `Cc1ccc(NC(=O)[C@H]2C[C@H]3C[C@H]3N2c2cncnn2)cc1-c1ncc(F)cn1` [Example 173, (1R,3R,5R)—N-(3-(5-fluoropyrimidin-2-yl)-4-methylphenyl)-2-(1,2,4-triazin-6-yl)-2-azabicyclo[3.1.0]hexane-3-carboxamide], the negative logarithm of the IC50 (pIC50) under setting [1] was 5.00 to 6.00. The same compound had an IC50 (11 point curve) of 4.2 µM.

The compound `Cc1ccc(NC(=O)C2(O)CCCC2)cc1-c1ccccn1` [Example 115, 1-hydroxy-N-(4-methyl-3-pyridin-2-ylphenyl)cyclopentane-1-carboxamide] had a pIC50 under setting [1] of less than 5.00. In addition, the IC50 (11 point curve) was determined as 36 µM.

For the compound `Cc1ccc(NC(=O)[C@H]2C[C@@H](C3CC3)C2)cc1-c1ccccn1` (single isomer, unassigned) [Example 122, cis-3-cyclopropyl-N-(4-methyl-3-pyridin-2-ylphenyl)cyclobutane-1-carboxamide], the IC50 (11 point curve) came to 0.3 µM. Also, the pIC50 under setting [2] is 6.00 to 10.00.

Consider `O=C(Nc1ccc(OC(F)(F)F)c(-c2ccccn2)c1)N1C2CCCC1C2` [Example 59, N-(3-(pyridin-2-yl)-4-(trifluoromethoxy)phenyl)-6-azabicyclo[3.1.1]heptane-6-carboxamide], for which 0.6 µM corresponded to half-maximal inhibition (11 point curve) (IC50). Besides, the negative-log IC50 (pIC50) under setting [2] is 6.00 to 10.00.

The compound `Cc1ccc(NC(=O)[C@H]2CC[C@@H](C)N2c2ccccn2)cc1-c1ncc(F)cn1` [Example 282, (2R,5R)-N-[3-(5-fluoropyrimidin-2-yl)-4-methylphenyl]-5-methyl-1-pyridin-2-ylpyrrolidine-2-carboxamide] had a negative-log IC50 (pIC50) under setting [1] of 5.00 to 6.00. In addition, it took 1.2 µM to reach half-maximal inhibition (11 point curve) (IC50).

In the case of `Cc1ccc(NC(=O)[C@H]2C3CC(F)(F)C[C@H]32)cc1-c1cccnn1` (stereo partly drawn) [Example 288, cis-3,3-difluoro-N-(4-methyl-3-pyridazin-3-ylphenyl)bicyclo[3.1.0] hexane-6-carboxamide], the pIC50 under setting [1] was less than 5.00. Also, the concentration for half-maximal inhibition (IC50) (11 point curve) was determined as 15 µM.

The compound `Cc1ccc(NC(=O)C2CC(C(F)(F)F)C2)cc1-c1ccccn1` (mixture of isomers) [Example 130, N-(4-methyl-3-pyridin-2-ylphenyl)-3-(trifluoromethyl)cyclobutane-1-carboxamide] had a pIC50 under setting [1] of 5.00 to 6.00. For the same compound, for the setting “11 point curve”, it took 2.6 µM to reach half-maximal inhibition (IC50).

Under setting [1], `Cc1ccc(NC(=O)[C@@H]2C[C@@H]3[C@H](C2)C3(F)F)cc1-c1cccnn1` [Example 176, trans-6,6-difluoro-N-(4-methyl-3-(pyridazin-3-yl)phenyl)bicyclo[3.1.0]hexane-3-carboxamide] had a pIC50 of less than 5.00. Under “11 point curve”, this compound had a half-maximal inhibitory concentration (IC50) of 16 µM.

As for `Cc1cnc(-c2cc(NC(=O)N3[C@@H]4C[C@@H](C)C[C@H]3C4)c(F)cc2Cl)nn1` [Example 320], the half-inhibitory concentration (IC50) (11 point curve) was 0.6 µM. Also, the pIC50 under setting [2] was 6.00 to 10.00.

`Cc1ccc(NC(=O)N2C3C[C@@H](C)C[C@H]2C3)cc1-c1cncc(F)n1` [Example 231, cis-N-[3-(6-fluoropyrazin-2-yl)-4-methylphenyl]-3-methyl-6-azabicyclo[3.1.1]heptane-6-carboxamide] had an IC50 (11 point curve) of 0.08 µM. Also, the negative-log IC50 (pIC50) under setting [2] is 6.00 to 10.00.

`Cc1cc(F)c(NC(=O)N2C3CCCC2C3)cc1-c1cc(Cl)cnn1` [Example 247, N-[5-(5-chloropyridazin-3-yl)-2-fluoro-4-methylphenyl]-6-azabicyclo[3.1.1]heptane-6-carboxamide] returned an IC50 (11 point curve) of 0.4 µM. For the same compound, the pIC50 under setting [2] was 6.00 to 10.00.

The compound `Cc1ccc(NC(=O)[C@H]2C[C@H](C3CC3)C2)cc1-c1ccccn1` (single isomer, unassigned) [Example 121, trans-3-cyclopropyl-N-(4-methyl-3-pyridin-2-ylphenyl)cyclobutane-1-carboxamide] yielded an IC50 (11 point curve) of 0.9 µM. For the same compound, the pIC50 under setting [2] is 6.00 to 10.00.

Under setting [1], `CO[C@@H]1CCCCN(C(=O)Nc2ccc(C(F)(F)F)c(-c3ncc(F)cn3)c2)C1` [Example 308, (R)-N-(3-(5-fluoropyrimidin-2-yl)-4-(trifluoromethyl)phenyl)-3-methoxyazepane-1-carboxamide] gave a pIC50 of less than 5.00. In addition, 32 µM corresponded to half-maximal inhibition (11 point curve) (IC50).

`Cc1ccc(NC(=O)N2CCCC3CC32)cc1-c1ccccn1` (stereo not drawn) [Example 99, N-(4-methyl-3-pyridin-2-ylphenyl)-2-azabicyclo[4.1.0]heptane-2-carboxamide] had a negative-log IC50 (pIC50) under setting [1] of less than 5.00. In addition, it took 18 µM to reach half-maximal inhibition (11 point curve) (IC50).

As to `Cc1ccc(NC(=O)N2C3CCC2c2cnccc23)cc1-c1ccccn1` (stereo not drawn) [Example 26, N-(4-methyl-3-(pyridin-2-yl)phenyl)-5,6,7,8-tetrahydro-5,8-epiminoisoquinoline-9-carboxamide], under setting [1], the negative-log IC50 (pIC50) was 5.00 to 6.00. Besides, the IC50 (11 point curve) is 1.3 µM.

For the setting “11 point curve”, `Cc1ccc(NC(=O)[C@H]2CC[C@@H](C)CN2c2ncccn2)cc1-c1ncccn1` (single isomer, unassigned) [Example 206, cis-5-methyl-N-(4-methyl-3-(pyrimidin-2-yl)phenyl)-1-(pyrimidin-2-yl)piperidine-2-carboxamide] displayed a 50% inhibitory concentration (IC50) of 0.7 µM. Moreover, the pIC50 under setting [2] is 6.00 to 10.00.

`Cc1ccc(NC(=O)[C@H]2C[C@H]3C[C@H]3N2Cc2ncccn2)cc1-c1ncc(F)cn1` [Example 261] had a pIC50 under setting [1] of less than 5.00. The IC50 (11 point curve) was 34 µM.

As for `Cc1ccc(NC(=O)C2C[C@H]3C[C@@H]23)cc1-c1ccccn1` (stereo partly drawn) [Example 117, cis-N-(4-methyl-3-pyridin-2-ylphenyl)bicyclo[2.1.0]pentane-2-carboxamide], the negative-log IC50 (pIC50) under setting [1] is 5.00 to 6.00. For the same compound, inhibition (11 point curve) was half-maximal at 4.6 µM (IC50).

As to `Cc1ccc(NC(=O)[C@@H]2C[C@@H]2C(F)(F)F)cc1-c1ccccn1` (racemic) [Example 124, cis-N-(4-methyl-3-pyridin-2-ylphenyl)-2-(trifluoromethyl)cyclopropane-1-carboxamide], the negative-log IC50 (pIC50) under setting [1] was 5.00 to 6.00. The same compound came in with a half-inhibitory concentration (IC50) (11 point curve) of 3.1 µM.

The compound `O=C(Nc1ccc(Cl)c(-c2ccc(F)cn2)c1)N1C2CCCC1C2` [Example 46, N-(4-chloro-3-(5-fluoropyridin-2-yl)phenyl)-6-azabicyclo[3.1.1]heptane-6-carboxamide] had a 50% inhibitory concentration (IC50) (11 point curve) of 0.2 µM. For the same compound, the pIC50 under setting [2] was 6.00 to 10.00.

In the case of `Cc1ccc(NC(=O)N2C3C[C@@H](C)C[C@H]2C3)cc1-c1cc(Cl)cnn1` [Example 216, cis-N-(3-(5-chloropyridazin-3-yl)-4-methylphenyl)-3-methyl-6-azabicyclo[3.1.1]heptane-6-carboxamide], half-maximal inhibition (11 point curve) (IC50) was put at 0.01 µM. Further, the pIC50 under setting [2] is 6.00 to 10.00.

The compound `Cc1ccc(NC(=O)[C@@H]2CC2(F)F)cc1-c1ccccn1` [Example 142, (1S)-2,2-difluoro-N-(4-methyl-3-pyridin-2-ylphenyl)cyclopropane-1-carboxamide] gave a pIC50 under setting [1] of 5.00 to 6.00. The compound further yielded an IC50 (11 point curve) of 2.6 µM.

`C[C@@H]1CC2C[C@H](C1)N2C(=O)Nc1ccc(Br)c(-c2nccnn2)c1` [Example 315] yielded an IC50 (11 point curve) of 0.08 µM. For the same compound, the pIC50 under setting [2] was 6.00 to 10.00.

`Cc1ccc(-c2cc(NC(=O)[C@@H]3CC3(F)F)ccc2C)nc1` [Example 162, (1S)-2,2-difluoro-N-[4-methyl-3-(5-methylpyridin-2-yl)phenyl]cyclopropane-1-carboxamide]: under setting [1], the pIC50 was 5.00 to 6.00. The IC50 (11 point curve) was 2.5 µM.

As to `Cc1ccc(NC(=O)[C@@H]2CC2(F)F)cc1-c1ccc(C2CC2)cn1` [Example 149, (1S)-N-[3-(5-cyclopropylpyridin-2-yl)-4-methylphenyl]-2,2-difluorocyclopropane-1-carboxamide], the negative-log IC50 (pIC50) under setting [1] is less than 5.00. The half-inhibitory concentration (IC50) (11 point curve) is 17 µM.

For `Cc1ccc(NC(=O)C2CCC23CC3)cc1-c1ccccn1` (racemic) [Example 113, N-(4-methyl-3-pyridin-2-ylphenyl)spiro[2.3]hexane-6-carboxamide], under setting [1], the pIC50 is 5.00 to 6.00. Further, the midpoint of inhibition (11 point curve), the IC50, lay at 2.5 µM.

For `Cc1ccc(NC(=O)C(C)(C)C)cc1-c1ccccn1` [Example 141, 2,2-dimethyl-N-(4-methyl-3-pyridin-2-ylphenyl)propanamide], under setting [1], the negative-log IC50 (pIC50) is less than 5.00. The IC50 (11 point curve) was determined as 19 µM.

Consider `COCC1COc2ccccc2CN1C(=O)Nc1ccc(C)c(-c2ncc(F)cn2)c1` (racemic) [Example 309, N-(3-(5-fluoropyrimidin-2-yl)-4-methylphenyl)-3-(methoxymethyl)-2,3-dihydrobenzo[f][1,4] oxazepine-4(5H)-carboxamide], for which, under setting [1], the pIC50 is 5.00 to 6.00. Further, the half-maximal inhibitory concentration (IC50) (11 point curve) was 1.1 µM.
